Patent US20090286770A1, “Use of Staurosporine Derivatives for the Treatment of Multiple Myeloma” (priority 2004, published 2009)

Test system: cell lines harbouring ras or FGFR3 activating mutations especially multiple myeloma cell lines
Assay: potency toward cell lines harbouring ras or FGFR3 activating mutations
Format: cell-based
Details: especially multiple myeloma cell lines harbouring the ras or FGFR3

Q: `CO[C@@H]1[C@H](N(C)C(=O)c2ccccc2)C[C@H]2O[C@]1(C)n1c3ccccc3c3c4c(c5c6ccccc6n2c5c31)C(=O)NC4` [MIDOSTAURIN, N-[(9S,10R,11R,13R)-2,3,10,11,12,13-hexahydro-10-methoxy-9-methyl-1-oxo-9,13-epoxy-1H,9H-diindolo[1,2,3-gh:3′,2′,1′-lm]pyrrolo[3,4-j][1,7]benzodiazonin-11-yl]-N-methylbenzamide] was tested. Which “potency toward cell lines harbouring ras or FGFR3 activating mutations” value did it give?
A: Its value is “unexpected high potency”.
